Measurements: patent publication US7452884B2, “Methods for inhibiting angiogenesis” (Fox Chase Cancer Center, priority 2001, dated 2008)
Where two headings read alike, the source gives them in different places.

Assays:
[1] = tested on: PAEC-VEGF-Matrigel implants; conditions: 250 mg/kg/dose p.o. QD for 6 days, nude mice, p<0.05
[2] = tested on: SVR angiosarcoma xenografts
[3] = tested on: human umbilical vein endothelial cells (HUVECs); assay: Capillary tube formation by HUVECs on Matrigel in vitro; conditions: for inhibition of complete capillary tube formation relative to vehicle-treated control cultures: 18 h incubation
[4] = tested on: rat aortic ring explant cultures; conditions: for inhibition of microvessel growth: day 8; for inhibition of microvessel growth relative to vehicle-treated control cultures: day 8 (peak of microvessel growth), serum-free EBM

Structure (SMILES)	reduction in neovascularization (hemoglobin content) relative to TW:PG vehicle-treated control mice [1] [%]	morbidity or mortality of treated mice ([2]; 250 mg/kg/dose p.o. QD for 10 days)	inhibition of tumor growth ([2]; 250 mg/kg/dose p.o. QD, as early as day 4 of dosing, p<0.005)	maximum inhibition of tumor volume relative to TW:PG vehicle-treated mice ([2]; 250 mg/kg/dose p.o. QD, day 10 of dosing, p<0.001) [%]	inhibition of complete capillary tube formation relative to vehicle-treated control cultures ([3]; 4 μM) [%]	inhibition of complete capillary tube formation relative to vehicle-treated control cultures ([3]; 40 μM, p<0.05) [%]	inhibition of complete capillary tube formation relative to vehicle-treated control cultures ([3]; 100 μM, p<0.05) [%]	cytotoxicity to human endothelial cells in culture ([3]; 4, 40 and 100 μM)	inhibition of microvessel growth ([4]; 0.4 μM)	inhibition of microvessel growth ([4]; 4 μM)	inhibition of microvessel growth relative to vehicle-treated control cultures ([4]; 40 μM, p<0.05) [%]	inhibition of microvessel growth relative to vehicle-treated control cultures ([4]; 100 μM, p<0.01) [%]	maximum reduction in SVR tumor volume relative to vehicle-treated control mice ([2]; 30 mg/kg/dose s.c. Q2D×3, by day 10) [%]
Cc1c(-c2cnccn2)ssc1=S [Oltipraz, 5-(2-pyrazinyl)-4-methyl-1,2-dithiol-3-thione]	42	absence of apparent morbidity or mortality	significant inhibition of tumor growth	81	23	62	52	absence of cytotoxicity	not inhibitory	not inhibitory	50	95	
CO[C@@H]1[C@H](OC(=O)NC(=O)CCl)CC[C@]2(CO2)[C@H]1[C@@]1(C)O[C@@H]1CC=C(C)C [TNP470]													80
